Measurements taken from ChEMBL document CHEMBL5465560, “Selectivity Literature for EUbOPEN Chemogenomic Library” (2024).

Key:
[1] = target: T1, TGF-beta receptor type-1 (Homo sapiens) (UniProt P36897); assay: Selectivity interaction (KinomeScan (DiscoverX)) EUB0000092b TGFBR1; conditions: at 10 µM
T1 sequence (whole entry): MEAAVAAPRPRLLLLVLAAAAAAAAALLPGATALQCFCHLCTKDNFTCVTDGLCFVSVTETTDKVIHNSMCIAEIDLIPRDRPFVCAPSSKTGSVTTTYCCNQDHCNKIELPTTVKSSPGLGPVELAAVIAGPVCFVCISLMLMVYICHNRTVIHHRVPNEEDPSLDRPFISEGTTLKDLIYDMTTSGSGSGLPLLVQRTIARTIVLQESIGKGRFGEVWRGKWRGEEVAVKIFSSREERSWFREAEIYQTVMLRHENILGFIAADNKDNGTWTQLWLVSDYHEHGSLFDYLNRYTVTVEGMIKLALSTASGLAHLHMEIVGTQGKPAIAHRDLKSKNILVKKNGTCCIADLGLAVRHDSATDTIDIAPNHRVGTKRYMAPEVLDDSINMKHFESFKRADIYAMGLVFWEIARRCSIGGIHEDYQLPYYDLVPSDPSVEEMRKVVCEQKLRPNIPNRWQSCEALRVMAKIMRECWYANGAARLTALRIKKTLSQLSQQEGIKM

[2] = target: T2, Serine/threonine-protein kinase TAO2 (Homo sapiens) (UniProt Q9UL54); assay: Selectivity interaction (KinomeScan (DiscoverX)) EUB0001079a TAOK2; conditions: at 1 µM
T2 sequence (whole entry): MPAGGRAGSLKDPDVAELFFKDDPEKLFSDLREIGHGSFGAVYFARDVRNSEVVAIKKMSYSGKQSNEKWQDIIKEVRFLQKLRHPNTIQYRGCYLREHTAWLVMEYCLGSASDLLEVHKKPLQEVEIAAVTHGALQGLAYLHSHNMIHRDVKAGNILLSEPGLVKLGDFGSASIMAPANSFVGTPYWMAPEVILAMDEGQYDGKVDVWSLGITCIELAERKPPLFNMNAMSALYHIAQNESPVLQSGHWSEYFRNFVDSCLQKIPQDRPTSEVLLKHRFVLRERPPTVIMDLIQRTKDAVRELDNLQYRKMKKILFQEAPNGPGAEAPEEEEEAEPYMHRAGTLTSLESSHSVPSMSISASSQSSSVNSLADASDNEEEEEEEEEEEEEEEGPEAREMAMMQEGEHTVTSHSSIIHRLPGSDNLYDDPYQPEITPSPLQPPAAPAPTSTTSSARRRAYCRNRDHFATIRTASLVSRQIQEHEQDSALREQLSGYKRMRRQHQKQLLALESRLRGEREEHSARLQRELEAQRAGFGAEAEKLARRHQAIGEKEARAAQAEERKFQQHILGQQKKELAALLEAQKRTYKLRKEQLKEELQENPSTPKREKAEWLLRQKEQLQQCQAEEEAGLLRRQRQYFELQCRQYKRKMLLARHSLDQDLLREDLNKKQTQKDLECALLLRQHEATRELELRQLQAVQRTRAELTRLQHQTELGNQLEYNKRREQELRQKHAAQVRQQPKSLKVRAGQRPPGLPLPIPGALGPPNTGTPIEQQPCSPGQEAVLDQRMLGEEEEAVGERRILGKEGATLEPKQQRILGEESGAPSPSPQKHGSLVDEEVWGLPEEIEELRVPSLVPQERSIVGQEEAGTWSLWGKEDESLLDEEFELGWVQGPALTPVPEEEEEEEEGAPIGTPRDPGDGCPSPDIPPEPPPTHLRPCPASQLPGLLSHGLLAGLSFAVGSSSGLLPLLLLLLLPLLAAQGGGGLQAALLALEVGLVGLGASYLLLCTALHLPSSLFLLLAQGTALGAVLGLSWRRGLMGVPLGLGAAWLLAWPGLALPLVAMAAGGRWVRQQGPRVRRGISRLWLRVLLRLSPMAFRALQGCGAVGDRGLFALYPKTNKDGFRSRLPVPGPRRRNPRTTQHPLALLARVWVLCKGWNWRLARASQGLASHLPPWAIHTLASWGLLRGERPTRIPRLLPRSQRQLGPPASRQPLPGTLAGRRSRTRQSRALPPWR

Structure (SMILES)	% of control [1] [%]	% of control [2] [%]
CCC(=O)N1CCN(c2ccc(-n3c(=O)ccc4cnc5ccc(-c6cnc7ccccc7c6)cc5c43)cc2C(F)(F)F)CC1	70	
Nc1cnc(N2CCc3cc(S(=O)(=O)Nc4c(F)cc(Cl)cc4F)cc(N4CCCC4=O)c32)nc1 [TP-020n]		78
